Results from PMC5971303, “α-Amylase and α-Glucosidase Inhibitory Activities of Chemical Constituents from Wedelia chinensis (Osbeck.) Merr. Leaves” (Journal of Analytical Methods in Chemistry, 2018).

Key:
yeast α-glucosidase = assay: Assay for α-glucosidase inhibition (p-nitrophenyl-α-D-glucopyranoside substrate, absorbance at 405 nm); assay type: biochemical; conditions: for α-glucosidase inhibitory effect (in words): compared with acarbose; for α-Glucosidase IC50 ± SD: tested three times, mean ± SD
Method: The yeast α-glucosidase (G0660, Sigma-Aldrich) inhibition assay was performed using the substrate p-nitrophenyl-α-D-glucopyranoside according to the previously described method. […] After 5 min preincubation, 5 mM p-nitrophenyl-α-D-glucopyranoside solution ([…]) was added, and the solution was incubated at 37°C for 30 min. […]. Each concentration of samples was carried out in triplicate. The absorbance of released 4-nitrophenol was measured at 405 nm by using a microplate reader (xMark, Bio-Rad, USA). […] The inhibitory activity was calculated by the following equation: α-glucosidase inhibitory activity (%) = (1–A/A0) × 100, where A is the absorbance of the sample and A0 is the absorbance of the blank, respectively. The IC50 value was calculated by GraphPad Prism.
(§1) Inhibition of α-glucosidase is one very effective way of delaying glucose absorption and lowering the postprandial blood glucose level, which can potentially suppress the progression of DM.

[1] = molecular target: T1, porcine pancreas α-amylase (Sus scrofa, UniProt P00690); assay: Assay for α-amylase inhibition (potato starch substrate, iodine, absorbance at 650 nm); assay type: biochemical; conditions: for α-amylase inhibitory effect (in words): compared with acarbose; for IC50: porcine pancreas α-amylase, tested three times, mean ± SD
T1 construct: purchased Sigma-Aldrich A3176
T1 sequence (P00690 16-511): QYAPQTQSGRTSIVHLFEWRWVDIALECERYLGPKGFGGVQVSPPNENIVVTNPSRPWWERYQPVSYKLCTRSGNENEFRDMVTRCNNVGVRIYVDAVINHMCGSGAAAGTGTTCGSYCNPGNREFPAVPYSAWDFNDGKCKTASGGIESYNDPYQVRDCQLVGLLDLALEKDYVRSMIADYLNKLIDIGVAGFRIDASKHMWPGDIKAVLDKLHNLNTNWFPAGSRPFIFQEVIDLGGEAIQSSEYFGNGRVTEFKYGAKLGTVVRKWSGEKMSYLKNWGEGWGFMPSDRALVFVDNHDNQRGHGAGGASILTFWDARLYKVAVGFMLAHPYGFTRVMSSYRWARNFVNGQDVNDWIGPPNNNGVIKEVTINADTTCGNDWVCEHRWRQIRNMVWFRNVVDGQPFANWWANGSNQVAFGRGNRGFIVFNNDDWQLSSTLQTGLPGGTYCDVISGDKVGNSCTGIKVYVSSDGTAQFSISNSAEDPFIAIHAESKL
Method: The substrate was prepared by boiling 100 mg potato starch in 5 mL phosphate buffer (pH 7.0) for 5 min and then cooling to room temperature. The sample ([…] dissolved in DMSO) and substrate ([…]) were mixed in […] of 0.1 M phosphate buffer (pH 7.0). After 5 min preincubation, 5 mg/mL α-amylase solution (20 mL) was added, and the solution was incubated at 37°C for 15 min. The reaction was stopped by adding […] of 1 M·HCl, and then, […] of iodine solution was added. The absorbances were measured at 650 nm by a microplate reader. […] The inhibitory activity was calculated by the following equation: α-amylase inhibitory activity (%) = (1–A/A0) × 100, where A is the absorbance of the sample and A0 is the absorbance of the blank, respectively. The IC50 value was calculated by GraphPad Prism.
as §1

Row | Structure (SMILES) | α-glucosidase inhibitory effect (in words) (yeast α-glucosidase) | α-Glucosidase inhibition (symbol in IC50 column) (yeast α-glucosidase; yeast α-glucosidase, dash = no inhibition (less than 10% inhibition)) | α-amylase inhibitory effect (in words) [1] | IC50 [1] | α-Glucosidase IC50 ± SD (yeast α-glucosidase; yeast α-glucosidase)
1 | C[C@@H]1CC[C@]2(C(=O)O)CC[C@]3(C)C(=CC[C@@H]4[C@@]5(C)CCC(=O)C(C)(C)[C@@H]5CC[C@]43C)[C@@H]2[C@]1(C)O [Compound 8, pomonic acid] | moderate | — ((‒): no inhibition (less than 10% inhibition)) | moderate | 894 µM | –
2 | COc1cc(-c2cc(=O)c3c(O)c(OC)c(O)cc3o2)ccc1O [Compound 7, jaceosidin] | – | – | – | 342 µM | 785.9 ± 12.7 µg/mL
3 | C[C@@H]1CC[C@]2(C(=O)O)CC[C@]3(C)C(=CC[C@@H]4[C@@]5(C)CC[C@H](O)C(C)(C)[C@@H]5CC[C@]43C)[C@@H]2[C@]1(C)O [Compound 9, pomolic acid] | moderate | – | moderate | 837 µM | 821.4 ± 55.2 µg/mL
4 | CC(O)C=CC12OC1(C)C(O)C(OS(=O)(=O)O)CC2(C)C [Compound 1, (3S,4R,5R,6S,9S,7E)-megastigman-5,6-epoxy-7-ene,4,9-diol,3-sulfonic acid] | moderate | – | moderate | 1350 µM | 915.6 ± 36.5 µg/mL
